The values that follow come from patent US10766888B1, “HMOX1 inducers” (Mitobridge Inc., priority 2019, dated 2020).

Converted amounts (≈) assume the structure as drawn. Like-named read-outs stand apart in the source and are kept apart here. A value given as a limit tells only on which side of the number the result lay.

For data set [1], the system named is Human Heme Oxygenase-1 (HMOX-1). Description: ELISA assay to measure human heme oxygenase-1 (HMOX-1) in HepG2 lysate. The data set is classed as cell-based. The essentials:
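HO-1 protein levels were read as fold change over DMSO-treated cells, with EC50 derived from these values. Quantitation used a chemiluminescent streptavidin-HRP capture ELISA, calibrated with an HO-1 standard series starting at 20 ng/ml, run at 20 °C. Samples were HepG2 lysates made with Triton X100/EDTA buffer and diluted 1:20.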

The nature of data set [2]: PD study: compound concentration in mouse liver. The data set is classed as in vivo, C57BL/6 mice. The conditions noted are these: male, C57BL/6, mouse, 50 mg/kg, 50 mpk oral; for concentration at 3 h: read-out: Liver Conc uM (3 h); for concentration at 6 h: read-out: Liver Conc uM (6 h). How it is done:
9-10 week old male C57BL/6 mice were dosed orally with 50 mg/kg of vehicle or compound formulated in 5% w/v tween 80 and 0.5% methyl cellulose. At indicated time points (3 and 6 hours or or 4 and 8 hours post-dosing as shown in the results below), whole blood was collected, animal was sacrificed and liver was collected. Blood samples were transferred to vials containing 4 μL of 10% w/v EDTA, centrifuged at 6000 rpm for 8 in below 10° C. to obtain plasma. Samples were frozen and later processed for HMOX1 protein levels as indicated below: […]

The next data set deals with hERG channel (Homo sapiens, UniProt Q12809). Description: hERG manual patch clamp assay. The conditions noted are these: HEK 293 cells stably expressing hERG channel, pH 7.35, 10 μM compound. The data set is classed as cell-based. As to the method:
Cell Lines and Cell Culture
HEK 293 cell line stably expressing hERG channel (Cat # K1236) was purchased from Invitrogen. The cells were cultured in 85% DMEM, 10% dialyzed FBS, 0.1 mM NEAA, 25 mM HEPES, 100 U/mL Penicillin-Streptomycin and 5 μg/mL Blasticidin and 400 μg/mL Geneticin. Cells were split using TrypLE™ Express about three times a week, and maintained between ˜40% to ˜80% confluence. Before the assay, the cells were transferred onto the coverslips at 5×10^5 cells/per 6 cm cell culture dish and induced with doxycycline at 1 μg/mL for 48 hours.
• 1) External solution (in mM): 132 NaCl, 4 KCl, 3 CaCl2, 0.5 MgCl2, 11.1 glucose, and 10 HEPES (pH adjusted to 7.35 with NaOH) • 2) Internal solution (in mM): 140 KCl, 2 MgCl2, 10 EGTA, 10 HEPES and 5 MgATP (pH adjusted to 7.35 with KOH) • 3) hERG currents were tested in presence of 10 μM compound concentration with final concentration of DMSO of 0.1%. Experimental Procedure • 1) Removed the coverslip from the cell culture dish and placed it on the microscope stage in bath chamber. • 2) Located a desirable cell using the 10× objective. Located the tip of the electrode under the microscope using the 10× objective by focusing above the plane of the cells. Once the tip was in focus, advanced the electrode downwards towards the cell using the coarse controls of the manipulator, while simultaneously moving the objective to keep the tip in focus. • 3) When directly over the cell, switched to the 40× objective and used the fine controls of the manipulator to approach the surface of the cell in small steps. • 4) Applied gentle suction through the side-port of the electrode holder to form a gigaohm seal. • 5) Used the Cfast to remove the capacity current that was in coincidence with the voltage step. Obtained the whole cell configuration by applying repetitive, brief, strong suction until the membrane patch ruptured. • 6) Set membrane potential to −60 mV at this point to ensure that hERG channels were not • open. The spikes of capacity current should then be cancelled using the Cslow on the amplifier. 7) Set holding potential to −90 mV for 500 ms; recorded current at 50 kHz and filtered at 10 kHz. Leaking current was tested at −80 mV for 500 ms. • 8) The hERG current was elicited by depolarizing at +30 mV for 4.8 seconds and then the voltage was taken back to −50 mV for 5.2 seconds to remove the inactivation and observe the deactivating tail current. The maximum amount of tail current size was used to determine hERG current amplitude. • 9) Recorded current for 120 seconds to assess the current stability. Only stable cells with recording parameters above threshold were applied for the compound administrations. • 10) Firstly vehicle control was applied to the cells to establish the baseline. […] In order to ensure the good performance of cultured cells and operations, the positive control, Dofetilide, with 5 dose concentration was also used to test the same batch of cells. Data Analysis
The following criteria were used to determine data acceptability. • 1) Initial seal resistance >1 GΩ; • 2) Leak currents <50% of the control peak tail currents at any time; • 3) The peak tail amplitude >250 pA; • 4) Membrane resistance Rm>500 MΩ; • 5) Access resistance (Ra)<10 MΩ; • 6) Apparent run-down of peak current <2.5% per min.
Data that met the above criteria for hERG current quality were further analyzed as the following steps. • 1) Percent hERG current inhibition was calculated using the following equation. • Note: PatchMaster or Clampfit software was used to extract the peak current from the original data.
[formula] • 2) The dose response curve of test compounds was plotted with percentage of hERG current inhibition against the concentration of test compounds using Graphpad Prism 6.0, and fit to a sigmoid dose-response curve with a variable slope.

Another data set in a line: Kinetic solubility. The settings on record: Dulbecco's phosphate buffer saline (DPBS), aqueous buffer, kinetic from dmso stock, DPBS pH 7.4, 25° C., 200 μM test compound. In kind it is physicochemical. The procedure, abridged:
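Compound from 10 mM DMSO stock diluted to 200 μM final in DPBS pH 7.4 and, separately, in DMSO, in duplicate. Shaken 16 h at 25 °C, then centrifuged 20 min at 25 °C. Supernatant analysed by HPLC.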

A further data set concerns the target T1, Human BACH1 (Homo sapiens, UniProt O14867).
T1 construct: 10×HIS-GP-BACH1(aa179-736)-Thrombin-FLAG; 10xHis (N); GP linker (Gly-Pro) (N); Thrombin cleavage site (C); FLAG (C); host or cells: Sf9 insect cells
T1 sequence (O14867 179-736): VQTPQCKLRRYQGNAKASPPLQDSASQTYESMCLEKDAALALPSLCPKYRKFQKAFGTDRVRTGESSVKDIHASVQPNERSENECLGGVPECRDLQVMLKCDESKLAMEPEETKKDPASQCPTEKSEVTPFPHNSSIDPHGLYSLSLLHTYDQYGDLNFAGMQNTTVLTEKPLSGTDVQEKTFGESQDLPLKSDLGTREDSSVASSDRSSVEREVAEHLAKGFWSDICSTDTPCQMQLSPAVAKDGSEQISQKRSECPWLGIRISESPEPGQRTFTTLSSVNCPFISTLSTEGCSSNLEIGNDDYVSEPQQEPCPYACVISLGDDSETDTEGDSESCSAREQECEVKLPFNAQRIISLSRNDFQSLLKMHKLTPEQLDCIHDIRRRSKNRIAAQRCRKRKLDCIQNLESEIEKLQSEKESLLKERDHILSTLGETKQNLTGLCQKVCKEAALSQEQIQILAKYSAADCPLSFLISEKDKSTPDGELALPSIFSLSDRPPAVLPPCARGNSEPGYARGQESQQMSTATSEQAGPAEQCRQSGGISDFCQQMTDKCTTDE
The data set is described as follows: Microscale thermophoresis (MST) assay / Bach 1 binding assay. The settings on record: 10 nM fluorescently labeled BACH1(aa179-736), 25° C. As to the method:
Example 146. Microscale Thermophoresis (MST) Assay/Bach 1 Binding Assay
Outline of Protein Expression/Production
Human BACH1 (construct-ID: 10×HIS-GP-BACH1(aa179-736)-Thrombin-FLAG) was expressed in Sf9 insect cells. Protein purification was performed using affinity chromatography, followed by size-exclusion chromatography. Quality of resulting protein was judged using SDS-PAGE analysis.
The MST technology is based on measurement of protein movement along a temperature gradient. Thereby, fluorescently labeled protein is loaded into capillaries, where an infrared laser heats a small volume. Before and during heating, fluorescent intensity is measured at the site of irradiation and the loss of fluorescence in the IR laser focus is quantified.
Two major factors contribute to change of fluorescence signal. First of all, the so-called TRIC (Temperature Related Intensity Change) effect is caused by the temperature-dependency of fluorophore's quantum yield. Herein, the extent of the temperature dependence depends on the chemical environment, which may be changed by the binding of a ligand (e.g. compound, peptide) to the target. Moreover, Kd value between ligand and target can depend on temperature. Second, thermophoresis, which is defined as movement of fluorescent molecules along temperature gradient, is a major contributor to change of fluorescence. Hereby, protein movement along the gradient depends on hydrodynamic radius, charge and hydration shell. These properties can change upon association of the labeled protein with another species, e.g. compound. Thereby, MST detects the differences in protein movement with increasing ligand concentration: from this, the fraction of ligand bound protein and a Kd value can be determined.
For Kd determination of compounds binding BACH1, the following protocol was applied: 10×HIS-GP-BACH1(aa179-736)-Thrombin-FLAG (expressed and purified at Proteros) was fluorescently labeled via its lysine-residues (2nd gen NHS-NT.647 dye).
Experiments were performed using the experimental device Monolith NT.115 Pico, NanoTemper Technologies, with MST power set to medium and excitation power set to 2% at a reaction temperature of 25° C.
10 nM fluorescently labeled BACH1 was applied to reaction buffer containing 50 mM HEPES pH 8.0, 100 mM NaCl, 5% glycerol, 0.05% Tween20 and 1 mM DTT in a reaction volume of 8 μL using Monolith NT.115 Premium Capillaries. Compounds were applied at a maximal concentration of 103 μM with 15 subsequent factor 2 dilutions.

Where [3] appears, read: HepG2, human HMOX1, as listed in Table 5, read-out: HMOX1 EC50 h.
Where [4] appears, read: human HMOX1 protein level in HepG2 lysate, * = average of 2 or more EC50 determinations, NA = Not Active, read-out: EC50.

Sequence of hERG channel (Q12809 whole entry): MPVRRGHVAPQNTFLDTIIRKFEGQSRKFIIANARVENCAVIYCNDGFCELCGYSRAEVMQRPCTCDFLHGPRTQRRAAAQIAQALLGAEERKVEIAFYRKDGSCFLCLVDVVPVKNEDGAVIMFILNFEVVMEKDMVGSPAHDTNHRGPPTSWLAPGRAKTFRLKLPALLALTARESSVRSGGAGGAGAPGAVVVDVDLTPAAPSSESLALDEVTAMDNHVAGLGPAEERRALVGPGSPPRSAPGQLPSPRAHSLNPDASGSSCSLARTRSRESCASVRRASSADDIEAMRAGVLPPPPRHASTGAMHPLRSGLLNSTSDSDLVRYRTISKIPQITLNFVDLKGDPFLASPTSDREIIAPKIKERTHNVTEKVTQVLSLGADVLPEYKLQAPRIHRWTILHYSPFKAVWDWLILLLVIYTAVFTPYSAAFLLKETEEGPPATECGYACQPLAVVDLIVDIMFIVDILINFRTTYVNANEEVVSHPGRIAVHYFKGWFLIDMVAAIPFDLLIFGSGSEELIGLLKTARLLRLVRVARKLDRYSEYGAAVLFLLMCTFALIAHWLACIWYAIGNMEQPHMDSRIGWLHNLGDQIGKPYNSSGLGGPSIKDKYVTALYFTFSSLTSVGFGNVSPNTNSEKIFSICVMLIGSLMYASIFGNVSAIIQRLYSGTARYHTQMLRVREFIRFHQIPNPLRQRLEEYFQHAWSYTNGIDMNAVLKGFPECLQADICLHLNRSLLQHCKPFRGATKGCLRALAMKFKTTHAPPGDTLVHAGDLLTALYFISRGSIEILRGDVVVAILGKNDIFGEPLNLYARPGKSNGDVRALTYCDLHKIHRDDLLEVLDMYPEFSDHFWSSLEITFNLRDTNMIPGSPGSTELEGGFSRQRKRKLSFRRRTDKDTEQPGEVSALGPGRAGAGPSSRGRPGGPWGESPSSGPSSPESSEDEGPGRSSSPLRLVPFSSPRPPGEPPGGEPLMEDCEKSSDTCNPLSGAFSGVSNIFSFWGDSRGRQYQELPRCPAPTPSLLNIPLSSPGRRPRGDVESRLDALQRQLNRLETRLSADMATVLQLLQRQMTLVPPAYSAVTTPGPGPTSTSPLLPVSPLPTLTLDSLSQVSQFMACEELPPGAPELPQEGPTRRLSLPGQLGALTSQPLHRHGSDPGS

For the compound `Cn1c(Nc2nc3cc(OC(F)(F)F)ccc3[nH]2)nc2cc(C(=O)O)ccc21` [Example 13, 1-methyl-2-((5-(trifluoromethoxy)-1H-benzo[d]imidazol-2-yl)amino)-1H-benzo[d]imidazole-5-carboxylic acid], the EC50 in data set [1] (setting [3]) was 1900 nM. Further, the EC50 in data set [1] (setting [4]) turned out to be 1900 nM. Moreover, in data set [2], the concentration at 3 h was 63 µM and the concentration at 6 h amounted to 5.4 µM. On hERG channel, this compound returned an inhibition at 10 µM of 34%.
The compound `Cn1c(Nc2nc3ccc(C(F)(F)F)cc3o2)nc2cc(C(=O)NCCO)ccc21` [Example 33, N-(2-hydroxyethyl)-1-methyl-2-((6-(trifluoromethyl)benzo[d]oxazol-2-yl)amino)-1H-benzo[d]imidazole-5-carboxamide] returned a solubility at 16 h in the data set “Kinetic solubility” of 0.9 µM (≈ 0.377 µg/mL). Besides, binding at Human BACH1 was put at a Kd of 260 nM. Further, in data set [1] (setting [4]), the EC50 amounted to 300 nM.
For `Cn1c(Nc2nc3ccc(OC(F)(F)F)cc3o2)nc2cc(C(=O)O)ccc21` [Example 44, 1-methyl-2-((6-(trifluoromethoxy)benzo[d]oxazol-2-yl)amino)-1H-benzo[d]imidazole-5-carboxylic acid], the half-maximal effective concentration (EC50) in data set [1] (setting [3]) came to 2000 nM. For the same compound, the EC50 in data set [1] (setting [4]) stood at 1300 nM. In data set [2], the concentration at 3 h was determined as 217 µM and the concentration at 6 h came to 162 µM. Also, the inhibition at 10 µM at hERG channel came out at 15%.
The compound `COCCNC(=O)c1ccc2c(c1)nc(Nc1nc3ncccc3o1)n2C` [Example 112, N-(2-methoxyethyl)-1-methyl-2-(oxazolo[4,5-b]pyridin-2-ylamino)-1H-benzo[d]imidazole-5-carboxamide] gave a Kd at Human BACH1 of 560 nM.
In the case of `CN(C)CCONC(=O)c1ccc2c(c1)nc(Nc1nc3ccc(C(F)(F)F)cc3o1)n2C` [Example 122, N-(2-(dimethylamino)ethoxy)-1-methyl-2-((6-(trifluoromethyl)benzo[d]oxazol-2-yl)amino)-1H-benzo[d]imidazole-5-carboxamide], in the data set “Kinetic solubility”, the solubility at 16 h was 5.1 µM (≈ 2.36 µg/mL). In data set [1] (setting [4]), the EC50 amounted to 400 nM. This compound also displayed an inhibition at 10 µM against hERG channel of 87%.
Consider `COCCONC(=O)c1ccc2c(c1)nc(Nc1nc3ccc(C(F)(F)F)cc3o1)n2C` [Example 124, N-(2-methoxyethoxy)-1-methyl-2-((6-(trifluoromethyl)benzo[d]oxazol-2-yl)amino)-1H-benzo[d]imidazole-5-carboxamide], for which, in “Kinetic solubility”, the solubility at 16 h was < 2 µM. In addition, the Kd at Human BACH1 amounted to 200 nM. The EC50 in data set [1] (setting [4]) came to 200 nM.
Compound `COCCOc1ccc2nc(Nc3nc4cc(C(=O)NOCCO)ccc4n3C)oc2c1` [Example 128, N-(2-hydroxyethoxy)-2-((6-(2-methoxyethoxy)benzo[d]oxazol-2-yl)amino)-1-methyl-1H-benzo[d]imidazole-5-carboxamide] came in with a solubility at 16 h in the data set “Kinetic solubility” of 4.7 µM (≈ 2.07 µg/mL). Also, the EC50 in data set [1] (setting [4]) came to 1200 nM. On hERG channel, this compound showed an inhibition at 10 µM of 18%.
The like results for `Cn1c(Nc2nc3ccc(N4CCCC4)cc3o2)nc2cc(C(=O)NCCOCCO)ccc21` [Example 137, N-(2-(2-hydroxyethoxy)ethyl)-1-methyl-2-((6-(pyrrolidin-1-yl)benzo[d]oxazol-2-yl)amino)-1H-benzo[d]imidazole-5-carboxamide] were, in that order, 6.9 µM (≈ 3.21 µg/mL), 1300 nM and 18%.
